From patent publication US6949660B2, “Chiral (1pyrrolino) fullerene derivatives” (Seth Nanotechnology, Incorporated, priority 1995, dated 2005)

Experiments:
[1] = system: Fibrosarcoma tumor cells (CCRC 60037); assay: Growth inhibition of fibrosarcoma tumor cells upon photo-irradiation, MTT assay; type: cell-based; settings: compound 2.5 μM for 24 h; fluorescence light (27 W) photo-irradiation more than 20 min; then 48 h at 37° C.
Procedure: The growth inhibitory effect of 1,3-dimethyl-N-succinamitofulleropyrrolidine-1,3-dicarboxylic acid, C60[C(CH3)CO2H]2NCO—CH2CH2CO2H, which was prepared as described in Example 12, on fibrosarcoma tumor cells upon photo-irradiation was studied in vitro. Fibrosarcoma tumor cells (0.5 ml, 4×10^4/ml, CCRC 60037) were grown in the MEM medium in a 24-well plate for a period of 24 h. It was treated by 1,3-dimethyl-N-succinamitofulleropyrrolidine-1,3-dicarboxylic acid in a concentration of 0.0, 2.5, 5.0, 7.5, and 10.0 μM for a period of 24 hours. The MEM medium was removed and replaced by the fresh medium (1.0 ml). The cell-containing plates were exposed to a fluorescence light source (27 W) in a distance of 5-6 cm for a period of 10, 20, 40, and 60 min. The plates were then kept in incubator at 37° C. a period of 48 h. Measurement of cell viability in each plate was performed by the MTT assay using optical absorption at 540 nm.

[2] = system: superoxide radicals (O2−); assay: Superoxide radical scavenging: xanthine/xanthine oxidase system, cytochrome C reduction, absorption at 550 nm; type: biochemical; settings: xanthine 50 μM, cytochrome C 10 μM, phosphate buffer pH 7.8
Procedure: Detection of high free radical scavenging potency of hydrophilic fullerene derivatives. […] Therefore, the detected optical absorption intensity of the reduced cytochrome (Fe^+2) C can be correlated to the quantity of superoxide radicals reacted with cytochrome (Fe^+3) C. Scavenging of superoxide radicals by hydrophilic fullerene derivatives in the bio-medium inhibits the formation of reduced cytochrome (Fe+2) C and thus reduce the optical absorption at 550 nm.
In one experiment, xanthine (50 μM) was added to a physiological medium (3 ml) containing cytochrome C (10 μM), ethylenediaminetetraacetic acid (EDTA) (10 mM) and a phosphate buffer (50 mM) at pH 7.8. The mixture was then added xanthine oxidase in quantity enough to induce 0.025 unit of optical absorption at 550 nm per 5 min (Mc Cord, et al. J. Biol. Chem. 1969, 244, 6049.). Subsequently, 1,3-dimethyl-N-succinamitofulleropyrrolidine-1,3-dicarboxylic acid, C60[C(CH3)CO2H]2NCO—CH2CH2CO2H, prepared in Example 12, in a concentration of 0, 5.0, 10.0, 25.0, 50, and 100 μM was added in separated runs while the absorption intensity of the reduced cytochrome C was recorded. A rapid decrease of reduced cytochrome C to roughly 50% and 20% of the control value was obtained with the dose of 1,3-dimethyl-N-succinamitofulleropyrrolidine-1,3-dicarboxylic acid as 25 and 100 μM, respectively.

1,3-dimethyl-N-succinamitofulleropyrrolidine-1,3-dicarboxylic acid
tumor cell count (cell viability, MTT, absorption at 540 nm) [1]: rapid decrease in the tumor cell count | reduced cytochrome C, % of the control value ([2]; compound 25 μM): roughly 50% | reduced cytochrome C, % of the control value ([2]; compound 100 μM): ~20%
